IC50 data for 13 molecules are collected here from patent publication US12534469B2 (CHILDREN'S HOSPITAL MEDICAL CENTER, priority 2020, dated 2026).

Bounds are passed on as bounds.

Test [1] addresses T1, FLT3 (Homo sapiens, UniProt P36888).
T1 construct: purchased Reaction Biology (RBC HotSpot Kinase Assay)
T1 sequence (P36888 564-958 limits assumed): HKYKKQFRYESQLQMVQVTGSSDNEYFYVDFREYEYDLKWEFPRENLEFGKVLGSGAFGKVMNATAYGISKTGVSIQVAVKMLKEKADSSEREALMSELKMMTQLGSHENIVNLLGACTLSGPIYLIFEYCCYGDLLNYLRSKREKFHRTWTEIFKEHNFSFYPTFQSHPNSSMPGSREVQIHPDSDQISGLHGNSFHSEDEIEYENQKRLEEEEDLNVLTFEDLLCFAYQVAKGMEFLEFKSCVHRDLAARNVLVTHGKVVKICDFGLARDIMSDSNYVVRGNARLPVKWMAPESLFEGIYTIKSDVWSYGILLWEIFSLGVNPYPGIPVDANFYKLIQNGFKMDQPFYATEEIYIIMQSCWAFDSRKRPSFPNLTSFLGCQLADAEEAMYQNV
The experiment in a line: RBC HotSpot Kinase Assay, FLT3. Type of test: biochemical. An outline of the steps: (§1)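 Radiometric filter-binding (HotSpot) activity assay on isolated recombinant kinase, possibly truncated or catalytic domain only, in 20 mM Hepes pH 7.5, 10 mM MgCl2, 1 mM EGTA, 2 mM DTT, 1% DMSO. Compound preincubated 20 min with kinase and substrate, then ^33P-ATP added. Reaction 2 h at room temperature, read by P81 filter binding.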

Test [2] addresses T2, IRAK4 (Homo sapiens, UniProt Q9NWZ3).
T2 sequence (Q9NWZ3 1-460): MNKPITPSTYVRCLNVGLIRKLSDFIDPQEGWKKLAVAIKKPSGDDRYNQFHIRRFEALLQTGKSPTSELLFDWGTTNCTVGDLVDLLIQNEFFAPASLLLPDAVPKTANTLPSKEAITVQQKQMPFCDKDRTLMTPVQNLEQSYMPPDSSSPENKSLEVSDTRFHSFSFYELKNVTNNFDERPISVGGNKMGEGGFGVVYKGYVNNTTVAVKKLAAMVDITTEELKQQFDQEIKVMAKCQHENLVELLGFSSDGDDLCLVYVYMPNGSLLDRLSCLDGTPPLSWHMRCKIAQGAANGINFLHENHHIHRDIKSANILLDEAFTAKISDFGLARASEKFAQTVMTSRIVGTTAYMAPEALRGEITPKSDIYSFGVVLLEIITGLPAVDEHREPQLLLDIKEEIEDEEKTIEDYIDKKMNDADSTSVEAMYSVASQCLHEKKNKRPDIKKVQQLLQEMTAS
The experiment in a line: RBC HotSpot Kinase Assay, IRAK4. The format is biochemical. More on the design: purchased Reaction Biology (RBC HotSpot Kinase Assay). The method, boiled down: as §1

A word on the IC50: it is the point on the concentration scale where inhibition reaches its midpoint. Low values mean higher potency, high ones lower potency.

As to `COc1cc2ncc(-c3cccc(N[C@@H]4CCNC4)n3)n2nc1C1CC1` [Compound 97, (R)-6-(6-cyclopropyl-7-methoxyimidazo[1,2-b]pyridazin-3-yl)-N-(pyrrolidin-3-yl)pyridin-2-amine], the results for the IC50 in test [1] and in test [2] were 0.6 nM and 2 nM, respectively.

As to `COc1cc2ncc(-c3cccc(N[C@H]4CNC[C@@H]4F)n3)n2nc1C(C)(O)C(F)(F)F` (single isomer, unassigned; fast-eluting) [Compound 133], the IC50 in test [1] and in test [2] was < 0.5 nM in each case.

Regarding `c1cc(N[C@@H]2CCCNC2)nc(-c2cnc3ccc(-c4cnn5ccccc45)nn23)c1` [Compound 19, (R)-N-(piperidin-3-yl)-6-(6-(pyrazolo[1,5-a]pyridin-3-yl)imidazo[1,2-b]pyridazin-3-yl)pyridin-2-amine], the IC50 is < 0.5 nM in test [1] and 3 nM in test [2].

`COc1cc2ncc(-c3cccc(N[C@H]4CNC[C@@H]4C(F)(F)F)n3)n2nc1C1CC1` [Compound 99, 6-(6-cyclopropyl-7-methoxyimidazo[1,2-b]pyridazin-3-yl)-N-((3R,4S)-4-(trifluoromethyl)pyrrolidin-3-yl)pyridin-2-amine]: the half-inhibitory concentration (IC50) in test [1] stood at 0.6 nM; in test [2] it was 0.5 nM.

Regarding `COc1cc2ncc(-c3nc(N[C@H]4CNCC[C@@H]4F)c(F)cc3F)n2nc1C1CC1` [Compound 108, 6-(6-cyclopropyl-7-methoxyimidazo[1,2-b]pyridazin-3-yl)-3,5-difluoro-N-((3S,4S)-4-fluoropiperidin-3-yl)pyridin-2-amine], the IC50 was < 0.5 nM in test [1] and 0.6 nM in test [2].

Turning to `COc1cc2ncc(-c3nc(N[C@@H]4CCCNC4)c(F)cc3F)n2nc1C1CC1` [Compound 106, (R)-6-(6-cyclopropyl-7-methoxyimidazo[1,2-b]pyridazin-3-yl)-3,5-difluoro-N-(piperidin-3-yl)pyridin-2-amine], the half-maximal inhibitory concentration (IC50) is < 0.5 nM in test [1] and 0.8 nM in test [2].

As to `COc1cc2ncc(-c3nc(N[C@H]4CNCC[C@@H]4F)c(F)cc3F)n2nc1C(C)(C)O` [Compound 128, 2-(3-(3,5-difluoro-6-(((3S,4S)-4-fluoropiperidin-3-yl)amino)pyridin-2-yl)-7-methoxyimidazo[1,2-b]pyridazin-6-yl)propan-2-ol], the IC50 in test [1] was < 0.5 nM; in test [2] it was 6 nM.

For the molecule `COc1cc2ncc(-c3nc(N[C@@H]4CCCNC4)c(F)cc3F)n2nc1C(C)(C)O` [Compound 127, (R)-2-(3-(3,5-difluoro-6-(piperidin-3-ylamino)pyridin-2-yl)-7-methoxyimidazo[1,2-b]pyridazin-6-yl)propan-2-ol], the IC50 in test [1] was < 0.5 nM; in test [2], 16 nM.

In the case of `COc1cc2ncc(-c3cccc(N[C@H]4CNCC[C@@H]4F)n3)n2nc1C1CC1` [Compound 102, 6-(6-cyclopropyl-7-methoxyimidazo[1,2-b]pyridazin-3-yl)-N-((3S,4S)-4-fluoropiperidin-3-yl)pyridin-2-amine], the IC50 in test [1] was < 0.5 nM; in test [2], 1 nM.

With `COc1cc2ncc(-c3nc(N[C@H]4CNC[C@@H]4F)c(F)cc3F)n2nc1C1CC1` [Compound 107, 6-(6-cyclopropyl-7-methoxyimidazo[1,2-b]pyridazin-3-yl)-3,5-difluoro-N-((3S,4S)-4-fluoropyrrolidin-3-yl)pyridin-2-amine], the IC50 in test [1] and in test [2] was < 0.5 nM in each case.

Take `F[C@H]1CNC[C@@H]1Nc1cccc(-c2cnc3ccc(-c4cnn5ccccc45)nn23)n1` [Compound 9, N-((3S,4S)-4-fluoropyrrolidin-3-yl)-6-(6-(pyrazolo[1,5-a]pyridin-3-yl)imidazo[1,2-b]pyridazin-3-yl)pyridin-2-amine]: the figures for the IC50 in test [1] and in test [2] were < 0.5 nM and 7 nM, respectively.

Consider `COc1cc2ncc(-c3nc(N[C@H]4CNC[C@@H]4F)c(F)cc3F)n2nc1C(C)(C)O` [Compound 126, 2-(3-(3,5-difluoro-6-(((3S,4S)-4-fluoropyrrolidin-3-yl)amino)pyridin-2-yl)-7-methoxyimidazo[1,2-b]pyridazin-6-yl)propan-2-ol], for which the IC50 is < 0.5 nM in test [1] and 4 nM in test [2].

On to `COc1cc2ncc(-c3cccc(N[C@H]4CNC[C@@H]4F)n3)n2nc1C1CC1` [Compound 96, 6-(6-cyclopropyl-7-methoxyimidazo[1,2-b]pyridazin-3-yl)-N-((3S,4S)-4-fluoropyrrolidin-3-yl)pyridin-2-amine], for which the figures for the IC50 in test [1] and in test [2] were 0.6 nM and 3 nM, respectively.
